The source made the active and inactive calls. The rule behind the calls is not given here.
Assays:
[1] = test system: Histone acetyltransferase p300 (Homo sapiens), Q09472 [C1438A]; test: (§1) Inhibition of His-tagged EP300 C1438A mutant catalytic domain catalyzed butyrylation (unknown origin) expressed in Escherichia coli BL21 (DE3) using Histone H3 as substrate at 25 uM preincubated with compound for 10 mins followed by butyryl-CoA addition and measured after 10 mins by Western blot analysis; conditions: time 20.0 min
[2] = test system: Histone acetyltransferase p300 (Homo sapiens), Q09472 [C1438A]; test: as §1, with “of […]” for “of”, “acetylation” for “butyrylation”, “acetyl-CoA” for “butyryl-CoA”; conditions: time 20.0 min
3T3-L1 [3] = test: Anti-adipogenic activity against mouse 3T3-L1 cells at 25 uM incubated for 8 days by Oil Red O staining based spectrophotometric analysis; format: functional, cell-based; conditions: time 8.0 day
3T3-L1 [4] = test: Anti-adipogenic activity against mouse 3T3-L1 cells assessed as downregulation of PPARG mRNA expression at 25 uM measured after 7 days by qRT-PCR analysis; format: functional, cell-based; conditions: time 7.0 day
3T3-L1 [5] = test: Anti-adipogenic activity against mouse 3T3-L1 cells assessed as downregulation of CEBPA mRNA expression at 25 uM measured after 7 days by qRT-PCR analysis; format: functional, cell-based; conditions: time 7.0 day
3T3-L1 [6] = test: Anti-adipogenic activity against mouse 3T3-L1 cells assessed as upregulation of KDM4C mRNA expression at 25 uM measured after 7 days by qRT-PCR analysis; format: functional, cell-based; conditions: time 7.0 day
3T3-L1 [7] = test: Anti-adipogenic activity against mouse 3T3-L1 cells assessed as upregulation of TEAD4 mRNA expression at 25 uM measured after 7 days by qRT-PCR analysis; format: functional, cell-based; conditions: time 7.0 day
3T3-L1 [8] = test: Inhibition of H3K23 butyrylation in mouse 3T3-L1 cells by Immunoblotting analysis; format: functional, cell-based
Mus musculus [9] = test: Anti-obesity activity in C57BL6/J mouse model of high fat diet-induced obesity assessed as reduction in adipocyte hypertrophy at 50 mg/kg by hematoxylin and eosin staining based assay; format: functional, organism-based
Mus musculus [10] = test: Anti-obesity activity in db/db mouse assessed as reduction in H4K5 butyrylation level in epididymal fat pad at 50 mg/kg, po qd administered for 30 days by Immunoblotting analysis; format: functional, organism-based; conditions: time 30.0 day
Mus musculus [11] = test: Anti-obesity activity in db/db mouse assessed as inhibition of Pprag-gene expression at 50 mg/kg, po qd administered for 30 days by qRT-PCR analysis; format: functional, organism-based; conditions: time 30.0 day
Mus musculus [12] = test: Anti-obesity activity in db/db mouse assessed as inhibition of lep gene expression at 50 mg/kg, po qd administered for 30 days by qRT-PCR analysis; format: functional, organism-based; conditions: time 30.0 day
Mus musculus [13] = test: Anti-obesity activity in db/db mouse assessed as inhibition of Adipoq-gene expression at 50 mg/kg, po qd administered for 30 days by qRT-PCR analysis; format: functional, organism-based; conditions: time 30.0 day
[14] = Toxicity in male Sprague-Dawley rat assessed as effect on body weight at 1000 mg/kg, po administered as single dose measured on day 1 (reference value: 174.75 +/- 7.61 g); format: organism-based; conditions: in vivo, 24 h, time 1 day
[15] = Toxicity in male Sprague-Dawley rat assessed as effect on body weight at 500 mg/kg, po administered as single dose measured on day 7 (reference value: 217.38 +/- 11.38 g); format: organism-based; conditions: in vivo, 168 h, time 7 day
[16] = Toxicity in male Sprague-Dawley rat assessed as effect on body weight at 1000 mg/kg, po administered as single dose measured on day 14 (Rvb =231.13 +/- 18.38 g); format: organism-based; conditions: in vivo, 336 h, time 14 day
[17] = Toxicity in female Sprague-Dawley rat assessed as effect on body weight at 500 mg/kg, po administered as single dose measured on day 1 (Rvb =152.21 +/- 6.58 g); format: organism-based; conditions: in vivo, 24 h, time 1 day
[18] = Toxicity in female Sprague-Dawley rat assessed as effect on body weight at 250 mg/kg, po administered as single dose measured on day 7 (Rvb =169.81 +/- 6.57 g); format: organism-based; conditions: in vivo, 168 h, time 7 day
[19] = Toxicity in female Sprague-Dawley rat assessed as effect on body weight at 500 mg/kg, po administered as single dose measured on day 7 (Rvb =169.81 +/- 6.57 g); format: organism-based; conditions: in vivo, 168 h, time 7 day
[20] = Toxicity in female Sprague-Dawley rat assessed as effect on body weight at 500 mg/kg, po administered as single dose measured on day 14 (Rvb =171.5 +/- 6.65 g); format: organism-based; conditions: in vivo, 336 h, time 14 day
[21] = Toxicity in female Sprague-Dawley rat assessed as effect on body weight at 1000 mg/kg, po administered as single dose measured on day 14 (Rvb =171.5 +/- 6.65 g); format: organism-based; conditions: in vivo, 336 h, time 14 day
[22] = Toxicity in male Sprague-Dawley rat assessed as average food intake at 250 mg/kg, po administered as single dose measured on day 1 (Rvb =20.38 g/day); format: organism-based; conditions: in vivo, 24 h, time 1 day
[23] = Toxicity in male Sprague-Dawley rat assessed as average food intake at 1000 mg/kg, po administered as single dose measured on day 1 (Rvb =20.38 g/day); format: organism-based; conditions: in vivo, 24 h, time 1 day
[24] = Toxicity in male Sprague-Dawley rat assessed as average food intake at 250 mg/kg, po administered as single dose measured on day 7 (Rvb =20.24 g/day); format: organism-based; conditions: in vivo, 168 h, time 7 day
[25] = Toxicity in female Sprague-Dawley rat assessed as average food intake at 250 mg/kg, po administered as single dose measured on day 7 (Rvb =15.65 g/day); format: organism-based; conditions: in vivo, 168 h, time 7 day
[26] = Toxicity in female Sprague-Dawley rat assessed as average food intake at 500 mg/kg, po administered as single dose measured on day 7 (Rvb =15.65 g/day); format: organism-based; conditions: in vivo, 168 h, time 7 day
[27] = Toxicity in female Sprague-Dawley rat assessed as average food intake at 1000 mg/kg, po administered as single dose measured on day 14 (Rvb =15.95 g/day); format: organism-based; conditions: in vivo, 336 h, time 14 day
[28] = Toxicity in male Sprague-Dawley rat assessed as average water intake measured per day at 250 mg/kg, po administered as single dose measured on day 1 (Rvb =32 ml/day); format: organism-based; conditions: in vivo, 24 h, time 1 day
[29] = Toxicity in male Sprague-Dawley rat assessed as average water intake measured per day at 250 mg/kg, po administered as single dose measured on day 7 (Rvb =30 ml/day); format: organism-based; conditions: in vivo, 168 h, time 7 day
[30] = Toxicity in female Sprague-Dawley rat assessed as average water intake measured per day at 250 mg/kg, po administered as single dose measured on day 1 (Rvb =25 ml/day); format: organism-based; conditions: in vivo, 24 h, time 1 day
[31] = Toxicity in female Sprague-Dawley rat assessed as average water intake measured per day at 1000 mg/kg, po administered as single dose measured on day 1 (Rvb =25 ml/day); format: organism-based; conditions: in vivo, 24 h, time 1 day

Chain of Histone acetyltransferase p300 (Homo sapiens), Q09472 [C1438A] (Q09472 whole entry C1438A, the tested form may be a part): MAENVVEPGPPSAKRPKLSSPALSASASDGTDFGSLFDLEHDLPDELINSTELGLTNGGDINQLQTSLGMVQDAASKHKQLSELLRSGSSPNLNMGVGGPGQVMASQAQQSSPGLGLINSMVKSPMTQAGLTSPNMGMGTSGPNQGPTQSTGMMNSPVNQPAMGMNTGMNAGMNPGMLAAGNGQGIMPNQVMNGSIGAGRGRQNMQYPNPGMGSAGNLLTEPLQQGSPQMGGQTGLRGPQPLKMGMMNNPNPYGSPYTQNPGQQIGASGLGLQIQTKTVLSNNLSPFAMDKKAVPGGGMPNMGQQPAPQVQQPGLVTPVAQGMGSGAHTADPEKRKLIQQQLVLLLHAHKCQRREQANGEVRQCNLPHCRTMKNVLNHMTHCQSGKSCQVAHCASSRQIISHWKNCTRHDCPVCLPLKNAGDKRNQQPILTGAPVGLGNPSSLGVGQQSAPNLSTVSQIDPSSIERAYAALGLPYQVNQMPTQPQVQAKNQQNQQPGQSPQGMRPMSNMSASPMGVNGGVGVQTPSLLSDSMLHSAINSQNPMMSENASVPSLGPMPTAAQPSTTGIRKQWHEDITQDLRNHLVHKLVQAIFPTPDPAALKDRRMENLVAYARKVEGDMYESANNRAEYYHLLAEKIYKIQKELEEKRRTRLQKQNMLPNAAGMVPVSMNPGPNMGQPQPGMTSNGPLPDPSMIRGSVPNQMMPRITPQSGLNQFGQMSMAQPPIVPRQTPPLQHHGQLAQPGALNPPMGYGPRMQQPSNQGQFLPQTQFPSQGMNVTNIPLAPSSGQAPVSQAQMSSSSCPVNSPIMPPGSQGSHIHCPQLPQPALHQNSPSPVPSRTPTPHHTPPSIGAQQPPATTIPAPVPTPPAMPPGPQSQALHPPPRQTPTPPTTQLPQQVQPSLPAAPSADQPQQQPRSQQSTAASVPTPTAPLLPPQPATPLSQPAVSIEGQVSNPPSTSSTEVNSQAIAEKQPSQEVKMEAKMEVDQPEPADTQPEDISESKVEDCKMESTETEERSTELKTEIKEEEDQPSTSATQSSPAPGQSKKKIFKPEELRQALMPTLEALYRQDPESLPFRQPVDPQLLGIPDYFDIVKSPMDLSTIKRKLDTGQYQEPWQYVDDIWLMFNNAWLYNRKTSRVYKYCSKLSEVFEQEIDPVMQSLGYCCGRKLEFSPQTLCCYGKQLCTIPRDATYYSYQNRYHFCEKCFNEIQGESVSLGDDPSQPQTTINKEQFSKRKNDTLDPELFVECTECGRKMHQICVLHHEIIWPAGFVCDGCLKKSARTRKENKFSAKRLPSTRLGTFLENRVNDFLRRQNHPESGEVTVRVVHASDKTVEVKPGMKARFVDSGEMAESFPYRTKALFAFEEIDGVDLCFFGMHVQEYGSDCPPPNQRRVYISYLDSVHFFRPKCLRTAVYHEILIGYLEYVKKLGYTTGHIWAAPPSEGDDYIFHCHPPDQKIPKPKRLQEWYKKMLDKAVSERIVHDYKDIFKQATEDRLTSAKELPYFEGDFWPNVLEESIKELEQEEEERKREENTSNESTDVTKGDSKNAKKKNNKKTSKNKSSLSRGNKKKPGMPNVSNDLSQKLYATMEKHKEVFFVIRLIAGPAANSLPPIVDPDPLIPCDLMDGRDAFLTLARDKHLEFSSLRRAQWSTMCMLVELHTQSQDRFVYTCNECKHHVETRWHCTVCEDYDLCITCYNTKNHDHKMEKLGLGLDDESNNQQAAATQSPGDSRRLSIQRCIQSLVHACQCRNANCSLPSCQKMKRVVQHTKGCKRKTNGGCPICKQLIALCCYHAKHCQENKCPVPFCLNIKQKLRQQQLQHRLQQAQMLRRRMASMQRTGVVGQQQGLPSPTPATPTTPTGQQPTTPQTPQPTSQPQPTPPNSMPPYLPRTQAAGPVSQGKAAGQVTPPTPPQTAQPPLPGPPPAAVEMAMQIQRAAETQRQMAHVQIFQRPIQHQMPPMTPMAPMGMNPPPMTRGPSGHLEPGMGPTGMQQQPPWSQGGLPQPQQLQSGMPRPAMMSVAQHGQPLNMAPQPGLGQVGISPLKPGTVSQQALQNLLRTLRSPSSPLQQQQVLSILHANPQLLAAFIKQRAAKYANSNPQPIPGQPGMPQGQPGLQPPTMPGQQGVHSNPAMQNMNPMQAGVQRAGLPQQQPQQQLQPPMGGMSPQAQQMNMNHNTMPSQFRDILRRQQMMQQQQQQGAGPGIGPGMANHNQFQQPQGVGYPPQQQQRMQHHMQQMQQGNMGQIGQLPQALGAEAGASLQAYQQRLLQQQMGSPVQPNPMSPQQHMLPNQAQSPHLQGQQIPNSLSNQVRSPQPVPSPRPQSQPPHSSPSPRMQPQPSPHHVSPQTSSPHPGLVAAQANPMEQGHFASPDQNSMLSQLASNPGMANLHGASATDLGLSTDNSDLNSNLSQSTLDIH

With `COc1ccc(C(=O)C2=C3OC(C)(C)[C@@H](CC=C(C)C)C[C@@]34C[C@@H](CC=C(C)C)C(C)(C)[C@](CC=C(C)C)(C2=O)C4=O)cc1OC` the inhibition [1] was “Active”, the inhibition [2] was “Active” and the Activity (3T3-L1 [3]) was “Active”. The Activity (3T3-L1 [4]) was “Active”, the Activity (3T3-L1 [5]) was “Active” and the Activity (3T3-L1 [6]) was “Active”. For the same molecule, the Activity (3T3-L1 [7]) was “Active”, the inhibition (3T3-L1 [8]) was “Active” and the Activity (Mus musculus [9]) was “Active”. For the same molecule, the Activity (Mus musculus [10]) was “Active”, the Activity (Mus musculus [11]) was “Active” and the Activity (Mus musculus [12]) was “Active”. For the same molecule, the Activity (Mus musculus [13]) was “Active”, the Activity [14] was 176.24 g and the Activity [15] was 229.75 g. For the same molecule, the Activity [16] was 226.19 g, the Activity [17] was 153.32 g and the Activity [18] was 174.54 g. For the same molecule, the Activity [19] was 176.55 g, the Activity [20] was 175.8 g and the Activity [21] was 179.52 g. It also gave an Activity [22] of 20.03 g/day, an Activity [23] of 20.76 g/day and an Activity [24] of 20.79 g/day. For the same molecule, the Activity [25] was 16.32 g/day, the Activity [26] was 18.13 g/day and the Activity [27] was 16.97 g/day. For the same molecule, the Activity [28] was 32 mL, the Activity [29] was 27 mL and the Activity [30] was 26 mL. It also gave an Activity [31] of 26 mL.
